Source: ChEMBL document CHEMBL1201862, “PubChem BioAssay data set” (2004)
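Each compound was tested at five concentrations against cells in 96-well plates for 48 hours. GI50 = concentration required for 50% inhibition of growth.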 Active and inactive are the calls of the source. Rule as the data show it: active = GI50 up to about 1.1 µM and inactive = higher.

Key:
Assay in all cases: DTP human tumour cell line panel, 48 h
786-0 = tested on: 786-0
A498 = tested on: A498
A549 = tested on: A549
ACHN = tested on: ACHN
BT-549 = tested on: BT-549
CAKI-1 = tested on: CAKI-1
CCRF-CEM = tested on: CCRF-CEM
COLO 205 = tested on: COLO 205
DU-145 = tested on: DU-145
EKVX = tested on: EKVX
HCC 2998 = tested on: HCC 2998
HCT-116 = tested on: HCT-116
HCT-15 = tested on: HCT-15
HL-60 = tested on: HL-60
HOP-62 = tested on: HOP-62
HOP-92 = tested on: HOP-92
HT-29 = tested on: HT-29
Hs-578T = tested on: Hs-578T
IGROV-1 = tested on: IGROV-1
K562 = tested on: K562
KM12 = tested on: KM12
LOX IMVI = tested on: LOX IMVI
M14 = tested on: M14
MCF7 = tested on: MCF7
MDA-MB-231 = tested on: MDA-MB-231
MDA-MB-435 = tested on: MDA-MB-435
MDA-N = tested on: MDA-N
MOLT-4 = tested on: MOLT-4
Malme-3M = tested on: Malme-3M
NCI-H23 = tested on: NCI-H23
NCI-H460 = tested on: NCI-H460
NCI-H522 = tested on: NCI-H522
NCI/ADR-RES = tested on: NCI/ADR-RES
OVCAR-3 = tested on: OVCAR-3
OVCAR-5 = tested on: OVCAR-5
OVCAR-8 = tested on: OVCAR-8
PC-3 = tested on: PC-3
RPMI-8226 = tested on: RPMI-8226
RXF 393 = tested on: RXF 393
SF-268 = tested on: SF-268
SF-295 = tested on: SF-295
SF-539 = tested on: SF-539
SK-MEL-28 = tested on: SK-MEL-28
SK-MEL-2 = tested on: SK-MEL-2
SK-MEL-5 = tested on: SK-MEL-5
SK-OV-3 = tested on: SK-OV-3
SN12C = tested on: SN12C
SNB-19 = tested on: SNB-19
SNB-75 = tested on: SNB-75
SR = tested on: SR
SW-620 = tested on: SW-620
T47D = tested on: T47D
TK-10 = tested on: TK-10
U-251 = tested on: U-251
UACC-257 = tested on: UACC-257
UACC-62 = tested on: UACC-62
UO-31 = tested on: UO-31
NCI-H226 = tested on: NCI-H226
OVCAR-4 = tested on: OVCAR-4

## Cc1nc2sccn2c1/C=C1/C(=O)Nc2cccc(Cl)c21
786-0
  GI50: > 100 µM (inactive)
A498
  GI50: 87.3 µM (inactive)
A549
  GI50: > 100 µM (inactive)
ACHN
  GI50: > 100 µM (inactive)
BT-549
  GI50: > 100 µM (inactive)
CAKI-1
  GI50: > 100 µM (inactive)
CCRF-CEM
  GI50: > 100 µM (inactive)
COLO 205
  GI50: 71.4 µM (inactive)
DU-145
  GI50: > 100 µM (inactive)
EKVX
  GI50: 79.6 µM (inactive)
HCC 2998
  GI50: > 100 µM (inactive)
HCT-116
  GI50: 89.9 µM (inactive)
HCT-15
  GI50: 47.2 µM
HL-60
  GI50: 52.7 µM (inactive)
HOP-62
  GI50: > 100 µM (inactive)
HOP-92
  GI50: > 100 µM (inactive)
HT-29
  GI50: 56.2 µM (inactive)
Hs-578T
  GI50: > 100 µM (inactive)
IGROV-1
  GI50: 53.6 µM (inactive)
K562
  GI50: 45.3 µM (inactive)
KM12
  GI50: 38.3 µM (inactive)
LOX IMVI
  GI50: > 100 µM (inactive)
M14
  GI50: > 100 µM (inactive)
MCF7
  GI50: 23 µM (inactive)
MDA-MB-231
  GI50: 50.4 µM (inactive)
MDA-MB-435
  GI50: 11.6 µM (inactive)
MDA-N
  GI50: 12.6 µM (inactive)
MOLT-4
  GI50: > 100 µM (inactive)
Malme-3M
  GI50: > 100 µM (inactive)
NCI-H23
  GI50: > 100 µM (inactive)
NCI-H460
  GI50: 92 µM (inactive)
NCI-H522
  GI50: 45.8 µM (inactive)
NCI/ADR-RES
  GI50: 34.2 µM (inactive)
OVCAR-3
  GI50: > 100 µM (inactive)
OVCAR-5
  GI50: 73.5 µM (inactive)
OVCAR-8
  GI50: > 100 µM (inactive)
PC-3
  GI50: 80.7 µM (inactive)
RPMI-8226
  GI50: > 100 µM (inactive)
RXF 393
  GI50: > 100 µM (inactive)
SF-268
  GI50: > 100 µM (inactive)
SF-295
  GI50: 51.6 µM (inactive)
SF-539
  GI50: > 100 µM (inactive)
SK-MEL-28
  GI50: > 100 µM (inactive)
SK-MEL-2
  GI50: > 100 µM (inactive)
SK-MEL-5
  GI50: 45.7 µM (inactive)
SK-OV-3
  GI50: > 100 µM (inactive)
SN12C
  GI50: > 100 µM (inactive)
SNB-19
  GI50: > 100 µM (inactive)
SNB-75
  GI50: > 100 µM (inactive)
SR
  GI50: 61.9 µM (inactive)
SW-620
  GI50: 41.4 µM (inactive)
T47D
  GI50: 38.6 µM (inactive)
TK-10
  GI50: > 100 µM (inactive)
U-251
  GI50: > 100 µM (inactive)
UACC-257
  GI50: > 100 µM (inactive)
UACC-62
  GI50: > 100 µM (inactive)
UO-31
  GI50: > 100 µM (inactive)

## CN(C)CCCN1c2ccccc2CCc2cccc([N+](=O)[O-])c21
786-0
  GI50: 15.3 µM (inactive)
A498
  GI50: 19.5 µM (inactive)
A549
  GI50: 37.3 µM (inactive)
ACHN
  GI50: 22.5 µM (inactive)
BT-549
  GI50: 25.9 µM (inactive)
CAKI-1
  GI50: 20 µM (inactive)
CCRF-CEM
  GI50: 5.38 µM (inactive)
COLO 205
  GI50: 17.8 µM (inactive)
DU-145
  GI50: 17.4 µM (inactive)
EKVX
  GI50: 49.3 µM (inactive)
HCC 2998
  GI50: 17.7 µM (inactive)
HCT-116
  GI50: 15.6 µM (inactive)
HCT-15
  GI50: 15.6 µM
HL-60
  GI50: 15.5 µM (inactive)
HOP-62
  GI50: 16.5 µM (inactive)
HOP-92
  GI50: 14.4 µM (inactive)
HT-29
  GI50: 14.6 µM (inactive)
Hs-578T
  GI50: 23.3 µM (inactive)
IGROV-1
  GI50: 16.9 µM (inactive)
K562
  GI50: 15.1 µM (inactive)
KM12
  GI50: 17.1 µM (inactive)
LOX IMVI
  GI50: 16.6 µM (inactive)
M14
  GI50: 15.7 µM (inactive)
MCF7
  GI50: 16.8 µM (inactive)
MDA-MB-231
  GI50: 25.2 µM (inactive)
MDA-MB-435
  GI50: 16.7 µM (inactive)
MDA-N
  GI50: 16.2 µM (inactive)
MOLT-4
  GI50: 13.7 µM (inactive)
Malme-3M
  GI50: 16.9 µM (inactive)
NCI-H226
  GI50: 22.6 µM (inactive)
NCI-H23
  GI50: 34.4 µM (inactive)
NCI-H460
  GI50: 18.2 µM (inactive)
NCI-H522
  GI50: 15.8 µM (inactive)
NCI/ADR-RES
  GI50: 16.5 µM (inactive)
OVCAR-3
  GI50: 16.3 µM (inactive)
OVCAR-4
  GI50: 18 µM (inactive)
OVCAR-5
  GI50: 28.8 µM (inactive)
OVCAR-8
  GI50: 15.9 µM (inactive)
PC-3
  GI50: 19.8 µM (inactive)
RPMI-8226
  GI50: 11.1 µM (inactive)
SF-268
  GI50: 23.5 µM (inactive)
SF-295
  GI50: 16.5 µM (inactive)
SF-539
  GI50: 17.7 µM (inactive)
SK-MEL-28
  GI50: 13.4 µM (inactive)
SK-MEL-2
  GI50: 26.5 µM (inactive)
SK-MEL-5
  GI50: 16.4 µM (inactive)
SK-OV-3
  GI50: 28.6 µM (inactive)
SN12C
  GI50: 21.3 µM (inactive)
SNB-19
  GI50: 47.2 µM (inactive)
SNB-75
  GI50: 6.34 µM (inactive)
SR
  GI50: 13.6 µM (inactive)
SW-620
  GI50: 17.7 µM (inactive)
T47D
  GI50: 13.7 µM (inactive)
TK-10
  GI50: 21.5 µM (inactive)
U-251
  GI50: 18.2 µM (inactive)
UACC-257
  GI50: 20.4 µM (inactive)
UACC-62
  GI50: 18.5 µM (inactive)
UO-31
  GI50: 17.4 µM (inactive)
